SMILES strings stand for the structures. Where two headings read alike, the source gives them in different places.

From patent publication US10399989B2, “Pyrazolopyrimidine derivatives as BTK inhibitors for the treatment of cancer” (Loxo Oncology, Inc., priority 2016, dated 2019) come the findings set out here.

Experiment [1] has as its system OCI-Ly10 human DLBCL cells. The experiment is described as follows: OCI-Ly10 anti-proliferative activity (Resazurin, 72 h). In kind it is cell-based. The following applies: Homo sapiens, OCI-Ly10, 72 h, read-out: Proliferation OCI-Ly10-IC50. The method, boiled down: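 Resazurin fluorescence (590 nm, 5 h dye incubation) read after 72 h compound exposure at 37 °C; NFκB-dependent cells seeded at 7.5×10^3/well in 2.5% FBS medium. Day 0 signal subtracted, values normalised to DMSO control; IC50 from log[inhibitor] vs response, variable-slope fit.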

In the next experiment the target is BTK^WT (Homo sapiens (Human), UniProt Q06187). The experiment is described as follows: BTK^WT binding affinity (TR-FRET, LanthaScreen). The method, boiled down: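 Tracer-displacement TR-FRET: 2.5 nM recombinant BTK, 2 nM Eu anti-His antibody and 15 nM Kinase Tracer 236 in Kinase Buffer A with inhibitor for 5 h. Emission read at 615/665 nm (excitation 340 nm); IC50 from variable-slope fit of log concentration vs response.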
Chain of BTK^WT (Q06187 whole entry): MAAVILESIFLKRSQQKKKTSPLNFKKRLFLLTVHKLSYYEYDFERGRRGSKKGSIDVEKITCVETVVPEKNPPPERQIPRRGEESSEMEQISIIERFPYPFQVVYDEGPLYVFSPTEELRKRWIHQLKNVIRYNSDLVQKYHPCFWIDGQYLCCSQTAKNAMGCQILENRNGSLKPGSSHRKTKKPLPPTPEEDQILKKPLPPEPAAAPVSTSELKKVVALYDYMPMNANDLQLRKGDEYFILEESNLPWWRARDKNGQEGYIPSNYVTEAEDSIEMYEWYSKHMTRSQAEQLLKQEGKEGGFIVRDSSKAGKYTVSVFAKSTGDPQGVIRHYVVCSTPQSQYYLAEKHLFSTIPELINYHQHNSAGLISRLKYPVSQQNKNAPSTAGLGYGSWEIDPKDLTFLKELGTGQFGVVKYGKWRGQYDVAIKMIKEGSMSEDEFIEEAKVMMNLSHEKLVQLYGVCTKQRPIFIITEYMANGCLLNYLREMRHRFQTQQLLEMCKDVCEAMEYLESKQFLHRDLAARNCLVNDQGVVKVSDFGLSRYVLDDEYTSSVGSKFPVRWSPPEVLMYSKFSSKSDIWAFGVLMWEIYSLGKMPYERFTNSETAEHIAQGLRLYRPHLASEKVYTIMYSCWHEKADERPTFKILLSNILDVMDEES
For orientation: TR-FRET usually uses a lanthanide donor and a delayed reading to cut background.

The target of a further experiment is BTK^C481S (Homo sapiens (Human), UniProt Q06187, C481S). Put plainly: BTK^C481S binding affinity (TR-FRET, LanthaScreen). The following applies: 5 h incubation. The method in brief: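 Tracer-displacement TR-FRET: 5 nM recombinant kinase, 2 nM Eu anti-His antibody and 30 nM Kinase Tracer 236 incubated 5 h with varying inhibitor in Kinase Buffer A. Read at 340 nm excitation, 615/665 nm emission. IC50 from log[inhibitor]–response variable-slope fit.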
Chain of BTK^C481S (Q06187 whole entry C481S): as the sequence (Q06187 whole entry) above, with C481S counted along it

A further experiment deals with EGFR (Homo sapiens (Human), UniProt P00533). Put plainly: EGFR binding affinity (TR-FRET, LanthaScreen). The following applies: 5 h incubation. The method in brief: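 IC50 derived by variable-slope fit of TR-FRET signal (ex 340, em 615 and 665 nm) against inhibitor concentration. Mix contained recombinant GST-detected EGFR at 2.5 nM, Eu anti-GST antibody at 2 nM and Kinase Tracer 199 at 3 nM in Kinase Buffer A, 5 h incubation.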
Chain of EGFR (P00533 25-1210): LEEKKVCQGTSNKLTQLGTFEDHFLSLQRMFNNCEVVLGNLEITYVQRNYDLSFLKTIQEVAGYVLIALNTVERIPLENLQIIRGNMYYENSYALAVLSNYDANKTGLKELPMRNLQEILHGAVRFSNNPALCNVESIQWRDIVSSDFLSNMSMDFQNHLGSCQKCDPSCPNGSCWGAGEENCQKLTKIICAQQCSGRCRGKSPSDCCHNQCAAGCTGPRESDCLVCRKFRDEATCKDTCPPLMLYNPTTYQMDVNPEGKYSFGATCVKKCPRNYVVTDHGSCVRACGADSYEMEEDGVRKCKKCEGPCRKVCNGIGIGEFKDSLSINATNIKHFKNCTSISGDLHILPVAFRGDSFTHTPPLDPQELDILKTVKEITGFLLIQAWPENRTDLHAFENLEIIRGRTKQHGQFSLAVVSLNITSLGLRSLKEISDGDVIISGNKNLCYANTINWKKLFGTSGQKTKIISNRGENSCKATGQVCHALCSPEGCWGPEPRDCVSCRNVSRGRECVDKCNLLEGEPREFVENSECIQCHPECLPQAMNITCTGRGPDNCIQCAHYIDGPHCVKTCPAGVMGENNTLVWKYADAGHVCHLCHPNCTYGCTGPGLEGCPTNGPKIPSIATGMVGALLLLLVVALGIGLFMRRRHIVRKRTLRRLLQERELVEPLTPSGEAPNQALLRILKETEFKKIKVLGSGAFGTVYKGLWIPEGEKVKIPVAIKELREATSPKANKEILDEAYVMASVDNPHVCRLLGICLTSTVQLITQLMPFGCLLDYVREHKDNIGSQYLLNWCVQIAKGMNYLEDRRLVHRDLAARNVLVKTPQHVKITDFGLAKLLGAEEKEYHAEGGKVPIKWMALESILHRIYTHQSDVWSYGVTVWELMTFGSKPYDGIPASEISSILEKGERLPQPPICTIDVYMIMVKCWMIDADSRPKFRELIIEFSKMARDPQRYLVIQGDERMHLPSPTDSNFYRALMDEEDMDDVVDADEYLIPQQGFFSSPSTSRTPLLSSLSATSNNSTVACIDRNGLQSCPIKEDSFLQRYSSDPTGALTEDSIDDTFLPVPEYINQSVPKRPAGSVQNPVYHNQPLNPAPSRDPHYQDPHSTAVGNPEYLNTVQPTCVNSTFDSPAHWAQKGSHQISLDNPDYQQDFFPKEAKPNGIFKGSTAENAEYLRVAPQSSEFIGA

Setting [2] is: TR-FRET binding, 5 h incubation, read-out: BTK^WT IC50.

As for `CCO[C@H]1C=C[C@H](n2nc(-c3ccc(CNC(=O)c4ccccc4OC)cc3)c3c(N)ncnc32)C1` [Example 55, N-[(4-{4-amino-1-[(1R,4R)-4-ethoxycyclopent-2-en-1-yl]-1H-pyrazolo[3,4-d]pyrimidin-3-yl}phenyl)methyl]-2-methoxybenzamide], the IC50 is 100 to 1000 nM in experiment [1], 10 to 100 nM on BTK^WT (setting [2]), 10 to 100 nM on BTK^C481S and 1000 to 10000 nM at EGFR.
On to `COCCO[C@H]1C=C[C@H](n2nc(-c3ccc(CNC(=O)c4ccccc4OC)cc3)c3c(N)ncnc32)C1` [Example 57, N-[[4-[4-amino-1-[(1R,4R)-4-(2-methoxyethoxy)cyclopent-2-en-1-yl]pyrazolo[3,4-d]pyrimidin-3-yl]phenyl]methyl]-2-methoxy-benzamide], for which the IC50 in experiment [1] is 100 to 1000 nM; on BTK^WT (setting [2]), 100 to 1000 nM; on BTK^C481S, 1000 to 10000 nM; on EGFR, 1000 to 10000 nM.
For the molecule `COCCNc1ncnc2c1c(-c1ccc(CNC(=O)c3ccccc3OC)cc1)nn2[C@H]1C=C[C@H](O)C1` [Example 58, N-[[4-[1-[(1R,4R)-4-hydroxycyclopent-2-en-1-yl]-4-(2-methoxyethylamino)pyrazolo[3,4-d]pyrimidin-3-yl]phenyl]methyl]-2-methoxy-benzamide], the IC50 was 100 to 1000 nM in experiment [1], at most 10 nM at BTK^WT (setting [2]), at most 10 nM on BTK^C481S and 1000 to 10000 nM at EGFR.
As to `COc1ccccc1C(=O)NCc1ccc(-c2nn([C@H]3C=C[C@H](N)C3)c3ncnc(N)c23)cc1` [Example 59, N-[(4-{4-amino-1-[(1R,4R)-4-aminocyclopent-2-en-1-yl]-1H-pyrazolo[3,4-d]pyrimidin-3-yl}phenyl)methyl]-2-methoxybenzamide], the IC50 in experiment [1] is 100 to 1000 nM; on BTK^WT (setting [2]), 10 to 100 nM; on BTK^C481S it was 10 to 100 nM; on EGFR, 1000 to 10000 nM.
Regarding `COc1ccccc1C(=O)NCc1ccc(-c2nn([C@H]3C=C[C@H](NC(C)=O)C3)c3ncnc(N)c23)cc1` [Example 60, N-[[4-[1-[(1R,4R)-4-acetamidocyclopent-2-en-1-yl]-4-amino-pyrazolo[3,4-d]pyrimidin-3-yl]phenyl]methyl]-2-methoxy-benzamide], the IC50 in experiment [1] is 100 to 1000 nM; at BTK^WT (setting [2]) it was at most 10 nM; on BTK^C481S, at most 10 nM; on EGFR, 1000 to 10000 nM.
Turning to `COc1ccccc1C(=O)NCc1ccc(-c2nn([C@H]3C=C[C@H](n4ccnn4)C3)c3ncnc(N)c23)cc1` [Example 61, N-[[4-[4-amino-1-[(1R,4R)-4-(triazol-1-yl)cyclopent-2-en-1-yl]pyrazolo[3,4-d]pyrimidin-3-yl]phenyl]methyl]-2-methoxy-benzamide], the IC50 in experiment [1] was 100 to 1000 nM; at BTK^WT (setting [2]) it was at most 10 nM; at BTK^C481S, at most 10 nM; on EGFR, 1000 to 10000 nM.
As for `COc1ccccc1C(=O)NCc1ccc(-c2nn(C3CCC(C)C3)c3ncnc(N)c23)cc1` (centres unmarked) [Example 62, N-[[4-[4-amino-1-(3-methylcyclopentyl)pyrazolo[3,4-d]pyrimidin-3-yl]phenyl]methyl]-2-methoxy-benzamide], the IC50 in experiment [1] is 10 to 100 nM; on BTK^WT (setting [2]) it was at most 10 nM; on BTK^C481S, at most 10 nM; at EGFR it was 100 to 1000 nM.
On to `COc1ccc(F)cc1C(=O)NCc1ccc(-c2nn(C3CCCC3)c3ncnc(N)c23)cc1F` [Example 63, N-[[4-(4-Amino-1-cyclopentyl-pyrazolo[3,4-d]pyrimidin-3-yl)-2-fluoro-phenyl]methyl]-5-fluoro-2-methoxy-benzamide], for which the IC50 in experiment [1] was 10 to 100 nM; on BTK^WT (setting [2]), at most 10 nM; on BTK^C481S it was at most 10 nM; on EGFR, 1000 to 10000 nM.
On to `COc1ccc(C)cc1C(=O)NCc1ccc(-c2nn(C3CCCC3)c3ncnc(N)c23)cc1F` [Example 65, N-[[4-(4-amino-1-cyclopentyl-pyrazolo[3,4-d]pyrimidin-3-yl)-2-fluoro-phenyl]methyl]-2-methoxy-5-methyl-benzamide], for which the IC50 in experiment [1] was 100 to 1000 nM; at BTK^WT (setting [2]), at most 10 nM; at BTK^C481S it was at most 10 nM; on EGFR, 1000 to 10000 nM.
Take `COc1ccccc1C(=O)NCc1ccc(-c2nn(C3CCCC3)c3ncnc(N)c23)cc1F` [Example 66, N-[[4-(4-amino-1-cyclopentyl-pyrazolo[3,4-d]pyrimidin-3-yl)-2-fluoro-phenyl]methyl]-2-methoxy-benzamide]: the IC50 in experiment [1] was 10 to 100 nM; on BTK^WT (setting [2]), at most 10 nM; on BTK^WT (Table 6, numeric values, read-out: BTK Binding IC50), 4 nM; at BTK^C481S, at most 10 nM; at EGFR it was 100 to 1000 nM.
In the case of `COc1ccc2ccccc2c1C(=O)NCc1ccc(-c2nn(C3CCCC3)c3ncnc(N)c23)cc1` [Example 68, N-[[4-(4-amino-1-cyclopentyl-pyrazolo[3,4-d]pyrimidin-3-yl)phenyl]methyl]-2-methoxy-naphthalene-1-carboxamide], the IC50 fell in the range of 1000 to 10000 nM in experiment [1], 100 to 1000 nM on BTK^WT (setting [2]), 100 to 1000 nM at BTK^C481S and 1000 to 10000 nM on EGFR.
Consider `Nc1ncnc2c1c(-c1ccc(CNC(=O)c3nccc4ccccc34)cc1)nn2C1CCCC1` [Example 69, N-[[4-(4-amino-1-cyclopentyl-pyrazolo[3,4-d]pyrimidin-3-yl)phenyl]methyl]isoquinoline-1-carboxamide], for which the IC50 in experiment [1] was 1000 to 10000 nM; on BTK^WT (setting [2]), 100 to 1000 nM; at BTK^C481S, 100 to 1000 nM; on EGFR, 1000 to 10000 nM.
As to `Nc1ncnc2c1c(-c1ccc(CNC(=O)c3cccc4cccnc34)cc1)nn2C1CCCC1` [Example 70, N-[[4-(4-amino-1-cyclopentyl-pyrazolo[3,4-d]pyrimidin-3-yl)phenyl]methyl]quinoline-8-carboxamide], the IC50 in experiment [1] is 100 to 1000 nM; on BTK^WT (setting [2]) it was at most 10 nM; on BTK^C481S, at most 10 nM; on EGFR, 100 to 1000 nM.
For the molecule `COc1ccccc1C(=O)NCc1ccc(-c2nn(CC(C)O)c3ncnc(N)c23)cc1` (centres unmarked) [Example 74, N-[[4-[4-amino-1-(2-hydroxypropyl)pyrazolo[3,4-d]pyrimidin-3-yl]phenyl]methyl]-2-methoxy-benzamide], the IC50 is 100 to 1000 nM in experiment [1], 10 to 100 nM at BTK^WT (setting [2]), 10 to 100 nM at BTK^C481S and 1000 to 10000 nM at EGFR.
Consider `COc1ccccc1C(=O)NCc1ccc(-c2nn(CC(C)C)c3ncnc(N)c23)cc1` [Example 76, N-[[4-(4-amino-1-isobutyl-pyrazolo[3,4-d]pyrimidin-3-yl)phenyl]methyl]-2-methoxy-benzamide], for which the IC50 in experiment [1] was 100 to 1000 nM; at BTK^WT (setting [2]) it was at most 10 nM; on BTK^C481S it was at most 10 nM; at EGFR it was 100 to 1000 nM.
On to `COc1ccccc1C(=O)NCc1ccc(-c2nn(C3CCCC3)c3ncnc(N)c23)c(OC)c1` [Example 77, N-[[4-(4-Amino-1-cyclopentyl-pyrazolo[3,4-d]pyrimidin-3-yl)-3-methoxy-phenyl]methyl]-2-methoxy-benzamide], for which the IC50 in experiment [1] is 10 to 100 nM; on BTK^WT (setting [2]), at most 10 nM; at BTK^C481S, at most 10 nM; at EGFR, above 10000 nM.
In the case of `COc1ccccc1C(=O)NCc1ccc(-c2nn(C3CCCC3)c3ncnc(N)c23)cc1C` [Example 89, N-[[4-(4-Amino-1-cyclopentyl-pyrazolo[3,4-d]pyrimidin-3-yl)-2-methyl-phenyl]methyl]-2-methoxy-benzamide], the IC50 in experiment [1] is 100 to 1000 nM; on BTK^WT (setting [2]), at most 10 nM; at BTK^C481S it was at most 10 nM; at EGFR, 100 to 1000 nM.
In the case of `COc1ccccc1C(=O)NCc1ccc(-c2nn(CC(F)(F)F)c3ncnc(N)c23)cc1` [Example 90, N-[[4-[4-Amino-1-(2,2,2-trifluoroethyl)pyrazolo[3,4-d]pyrimidin-3-yl]phenyl]methyl]-2-methoxy-benzamide], the IC50 is 1000 to 10000 nM in experiment [1], 10 to 100 nM at BTK^WT (setting [2]), 10 to 100 nM at BTK^C481S and above 10000 nM at EGFR.
With `COc1ccc(F)cc1C(=O)NCc1ccc(-c2nn(CC(F)(F)F)c3ncnc(N)c23)cc1` [Example 93, N-[[4-[4-Amino-1-(2,2,2-trifluoroethyl)pyrazolo[3,4-d]pyrimidin-3-yl]phenyl]methyl]-5-fluoro-2-methoxy-benzamide], the IC50 in experiment [1] was 100 to 1000 nM; on BTK^WT (setting [2]), at most 10 nM; on BTK^C481S it was at most 10 nM; at EGFR, above 10000 nM.
